Test system: 233499-124-R-J3-PDC spheroids with HUVEC/MSC, viability
Experiment: Anticancer human tumor 233499-124-R-J3-PDC patient-derived colon adenocarcinoma cell line growth inhibition [PI3K]
Conditions: for IC50: curve of first compound; for viability, T/C: stronger effect = lower value; active = viability on the fitted dose curve at most 10% of control; inactive = the rest
In short: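 We assembled tumor spheroids that included a stromal compartment of HUVEC and MSCs, then exposed them to targeted agents alone and together with PI3K pathway inhibitors. Concentration series descended by half-log from clinically achievable Cmax levels. Viability served as the endpoint.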

[1] = second compound 0.00316 µM, first compound 0.0316 µM
[2] = second compound 0.00316 µM, first compound 0.1 µM
[3] = second compound 0.01 µM, first compound 0.0316 µM
[4] = second compound 0.01 µM, first compound 0.1 µM
[5] = second compound 0.0316 µM, first compound 0.0316 µM
[6] = second compound 0.0316 µM, first compound 0.1 µM
[7] = second compound 0.1 µM, first compound 0.0316 µM
[8] = second compound 0.1 µM, first compound 0.1 µM
[9] = second compound 0.316 µM, first compound 0.0316 µM
[10] = second compound 0.316 µM, first compound 0.1 µM
[11] = second compound 1 µM, first compound 0.0316 µM
[12] = second compound 1 µM, first compound 0.1 µM
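Note: spheroids exposed to agents for seven days before readout.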
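Throughout, for viability, T/C: percent viability relative to DMSO vehicle control taken as 100%.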

C[C@@H](NC(=O)c1ncnc(N)c1Cl)c1ncc(C(=O)Nc2cc(C(F)(F)F)c(Cl)cn2)s1 + COc1c(OCCCN2CCOCC2)ccc2c3n(c(=NC(=O)c4cnc(N)nc4)nc12)CCN3
< 31.6 nM: IC50 (second compound 0.316 µM) | IC50 (second compound 1 µM)
> 10000 nM: IC50 (second compound 0.00316 µM) | IC50 (second compound 0.01 µM) | IC50 (second compound 0.0316 µM) | IC50 (second compound 0.1 µM)
inactive: viability, T/C [1] 97.6% | viability, T/C [2] 127% | viability, T/C (second compound 0.00316 µM, first compound 0.316 µM) 126% | viability, T/C (second compound 0.00316 µM, first compound 1 µM) 103% | viability, T/C (second compound 0.00316 µM, first compound 3.16 µM) 120% | viability, T/C (second compound 0.00316 µM, first compound 10 µM) 104% | viability, T/C [3] 94.1% | viability, T/C [4] 103% | viability, T/C (second compound 0.01 µM, first compound 0.316 µM) 105% | viability, T/C (second compound 0.01 µM, first compound 1 µM) 117% | viability, T/C (second compound 0.01 µM, first compound 3.16 µM) 121% | viability, T/C (second compound 0.01 µM, first compound 10 µM) 123% | viability, T/C [5] 113% | viability, T/C [6] 107% | viability, T/C (second compound 0.0316 µM, first compound 0.316 µM) 109% | viability, T/C (second compound 0.0316 µM, first compound 1 µM) 96.1% | viability, T/C (second compound 0.0316 µM, first compound 3.16 µM) 107% | viability, T/C (second compound 0.0316 µM, first compound 10 µM) 106% | viability, T/C [7] 85.6% | viability, T/C [8] 79.4% | viability, T/C (second compound 0.1 µM, first compound 0.316 µM) 85.5% | viability, T/C (second compound 0.1 µM, first compound 1 µM) 69.8% | viability, T/C (second compound 0.1 µM, first compound 3.16 µM) 97.9% | viability, T/C (second compound 0.1 µM, first compound 10 µM) 99.3% | viability, T/C [9] 44.8% | viability, T/C [10] 31.8% | viability, T/C (second compound 0.316 µM, first compound 0.316 µM) 21% | viability, T/C (second compound 0.316 µM, first compound 1 µM) 37.7% | viability, T/C (second compound 0.316 µM, first compound 3.16 µM) 45.6% | viability, T/C (second compound 0.316 µM, first compound 10 µM) 31.2% | viability, T/C [11] 6.68% | viability, T/C [12] 10.7% | viability, T/C (second compound 1 µM, first compound 0.316 µM) 13.8% | viability, T/C (second compound 1 µM, first compound 1 µM) 7.94% | viability, T/C (second compound 1 µM, first compound 3.16 µM) 20% | viability, T/C (second compound 1 µM, first compound 10 µM) 1.67%

Cn1ncnc1[C@H]1c2n[nH]c(=O)c3cc(F)cc(c23)N[C@@H]1c1ccc(F)cc1 + COc1c(OCCCN2CCOCC2)ccc2c3n(c(=NC(=O)c4cnc(N)nc4)nc12)CCN3
> 100 nM: IC50 (second compound 0.00316 µM) | IC50 (second compound 0.01 µM) | IC50 (second compound 0.0316 µM) | IC50 (second compound 0.1 µM)
active: viability, T/C (second compound 1 µM, first compound 0.000316 µM) 4.32% | viability, T/C (second compound 1 µM, first compound 0.001 µM) 8.27% | viability, T/C (second compound 1 µM, first compound 0.00316 µM) 5.26% | viability, T/C (second compound 1 µM, first compound 0.01 µM) 9.55% | viability, T/C [11] 11.9% | viability, T/C [12] 11.5%
< 0.316 nM: IC50 (second compound 0.316 µM) | IC50 (second compound 1 µM)
inactive: viability, T/C (second compound 0.00316 µM, first compound 0.000316 µM) 97.7% | viability, T/C (second compound 0.00316 µM, first compound 0.001 µM) 111% | viability, T/C (second compound 0.00316 µM, first compound 0.00316 µM) 97.2% | viability, T/C (second compound 0.00316 µM, first compound 0.01 µM) 111% | viability, T/C [1] 90.2% | viability, T/C [2] 85.9% | viability, T/C (second compound 0.01 µM, first compound 0.000316 µM) 90.1% | viability, T/C (second compound 0.01 µM, first compound 0.001 µM) 92.3% | viability, T/C (second compound 0.01 µM, first compound 0.00316 µM) 90% | viability, T/C (second compound 0.01 µM, first compound 0.01 µM) 78.2% | viability, T/C [3] 90.9% | viability, T/C [4] 66.9% | viability, T/C (second compound 0.0316 µM, first compound 0.000316 µM) 94% | viability, T/C (second compound 0.0316 µM, first compound 0.001 µM) 81.4% | viability, T/C (second compound 0.0316 µM, first compound 0.00316 µM) 89.2% | viability, T/C (second compound 0.0316 µM, first compound 0.01 µM) 83.9% | viability, T/C [5] 80.9% | viability, T/C [6] 79.6% | viability, T/C (second compound 0.1 µM, first compound 0.000316 µM) 81.1% | viability, T/C (second compound 0.1 µM, first compound 0.001 µM) 75.3% | viability, T/C (second compound 0.1 µM, first compound 0.00316 µM) 75.9% | viability, T/C (second compound 0.1 µM, first compound 0.01 µM) 76.7% | viability, T/C [7] 65.9% | viability, T/C [8] 66.7% | viability, T/C (second compound 0.316 µM, first compound 0.000316 µM) 34.7% | viability, T/C (second compound 0.316 µM, first compound 0.001 µM) 27.6% | viability, T/C (second compound 0.316 µM, first compound 0.00316 µM) 36.6% | viability, T/C (second compound 0.316 µM, first compound 0.01 µM) 33.9% | viability, T/C [9] 28.4% | viability, T/C [10] 35%

Source: PubChem BioAssay AID1963984 (Molecular Pharmacology Branch, DTP, NCI, 2024)
